Assay in all cases: NCI tumour cell line growth inhibition, 48 h
In experiment [1] the test system is 786-0 renal.
The subject of experiment [2] is A549 NSCLC.
The test system of experiment [3] is HCC-2998 colon.
The test system of experiment [4] is HCT-15 colon.
Experiment [5] relates to HL-60(TB) leukemia.
Experiment [6] has as its system M14 melanoma.
Experiment [7] relates to MOLT-4 leukemia.
For experiment [8], the system named is OVCAR-4 ovarian.
Experiment [9] concerns RXF 393 renal.
Experiment [10] has as its system SF-268 CNS.
The test system of experiment [11] is SF-295 CNS.

Where “and” joins values, the source holds several entries; their conditions need not be identical. Identical values can stand only once.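 Values below derive from 48-hour exposures of cells grown in 96-well plates, with endpoints linearly interpolated between the two concentrations bracketing the appropriate inhibition level. GI50 is the concentration that inhibits growth by half. At the TGI there is no net growth.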

`COC(=O)c1ccccc1C1CN=NC12Cc1cc(C)ccc1C2=O` (stereo not drawn): the TGI in experiment [1], in experiment [2], in [3], in experiment [4], in experiment [5] and in experiment [6] was over 100 µM throughout. Besides, the TGI in experiment [7], in experiment [8], in [9], in [10] and in [11] was over 100 µM each time.
Take `O=C1C(c2c(O)[nH]c3ccc(Br)cc23)=Nc2ccccc21`: the TGI in experiment [1] was 5.75 µM; in experiment [2] it was 17.3 µM; in experiment [3] it was 13.5 µM; in [4] it was over 100 µM; in experiment [5] it was over 100 µM; in experiment [6], 32.4 µM. Besides, the TGI in experiment [7] was over 100 µM; in [8], 29.8 µM; in experiment [9], 6.47 µM; in [10], 24.4 µM; in experiment [11], 51 µM.
For the molecule `COC(=O)C(CCSC)NC(=O)Cc1ccc(C(=O)c2ccccc2)cc1` (stereo not drawn), the TGI in [1], in [2], in [3], in experiment [4], in experiment [5] and in experiment [6] was over 100 µM in each case. Also, the TGI in [7], in [8], in experiment [9], in experiment [10] and in experiment [11] was over 100 µM each time.
For `O=C1C(Cl)=C(Nc2ccc(S(=O)(=O)Nc3ccccn3)cc2)C(=O)c2ccccc21`, the TGI is 26.1 µM in experiment [1]; 41.9 µM in [2]; 24.8 µM in [3]; 23.2 µM in experiment [4]; over 50.5 µM in experiment [5]; 15.4 µM in [6]. The TGI is 25.5 µM in experiment [7]; over 53.6 µM in [8]; 22.6 µM in [9]; 29.3 µM in experiment [10]; 35.2 µM in experiment [11].
Consider `O=[N+]([O-])c1cc(-c2nc(-c3ccccc3)c(-c3ccccc3)[nH]2)c(O)c([N+](=O)[O-])c1`, for which the TGI in experiment [1] was 48.6 µM; in experiment [2] it was over 100 µM; in experiment [3], 30.8 µM; in experiment [4], 33.6 µM; in [5], 70.1 µM; in experiment [6], 46.4 µM. Further, the TGI in experiment [7] was 61.7 µM; in [8], over 100 µM; in experiment [9], 44.8 µM; in experiment [10], over 100 µM; in [11], 54.2 µM.
Turning to `CCCCCCCCCCNC(=O)CCC(NC(=O)c1ccc(N(C)Cc2cnc3nc(N)nc(N)c3n2)cc1)C(=O)NCCCCCCCCCC` (stereo not drawn), the TGI is 13.5 µM in experiment [1]; over 100 µM in experiment [2]; 48.6 µM in experiment [3]; over 100 µM in [4]; over 25.3 µM in experiment [5]; 57.7 µM in experiment [6]. Further, the TGI was 30.5 µM in [7]; over 45.4 µM in experiment [8]; 19.3 µM in experiment [9]; 40.2 µM in experiment [10]; over 100 µM in experiment [11].
In the case of `C(=C\c1ccco1)/c1cccc(/C=C/c2ccco2)n1`, the TGI in experiment [1], in experiment [2], in [3], in experiment [4], in experiment [5] and in experiment [6] was over 50 µM each time. Also, the TGI in experiment [7], in experiment [8], in [9], in experiment [10] and in experiment [11] was over 50 µM in each case.
With `CCCCCCCCCCCCC(O)[C@H]1CC[C@H](C(O)CCCCCC(=O)CCCCC2CC(C(C)=O)C(=O)O2)O1` (stereo partly drawn), the TGI in experiment [1] was 52.1 µM; in experiment [2], over 100 µM; in [3] it was 32.1 µM; in experiment [4], over 70.9 µM; in experiment [5], over 29.5 µM; in [6] it was 26.2 µM. The TGI worked out at 23.4 µM in [7]; 39.4 µM in experiment [8]; 22.2 µM in experiment [9]; 53.4 µM in experiment [10]; 37.6 µM in [11]. In addition, the GI50 in [2] was 2.33 µM; in experiment [4], 6.51 µM; in experiment [5], 2.68 µM; in experiment [6], 6.01 µM; in [7], 2.81 µM and 2.14 µM; in experiment [10] it was 3.43 µM. Further, the GI50 in experiment [11] is 2.7 µM.
Take `COC(=O)C1OC(O[C@H]2CC[C@]3(C)[C@H]4CC=C5[C@@H]6CC(C)(C)CC[C@]6(C(=O)OC6OCC(O)C(O)C6OC6OC(C)C(OC7OCC(O)C(O)C7O)C(O)C6O)CC[C@@]5(C)[C@]4(C)CC[C@H]3C2(C)C)C(O)C(O)C1O` (stereo partly drawn): the TGI was 29.2 µM and 32.4 µM in [1]; 33 µM and 41 µM in experiment [2]; 25.4 µM and 29.5 µM in experiment [3]; over 100 µM in experiment [4]; 41.3 µM and 35.1 µM in experiment [5]; 28.6 µM and 32.5 µM in experiment [6]. The TGI was 38.9 µM and 45 µM in experiment [7]; 34.3 µM and 29.8 µM in [8]; 37 µM and 40.7 µM in experiment [9]; 31.2 µM and 34.7 µM in [10]; 34.8 µM and 32.2 µM in [11].
Take `Nc1onc2c1Cc1c(noc1N)-c1ccccc1-2`: the TGI is over 100 µM in experiment [1]; over 100 µM in experiment [2]; over 100 µM in experiment [3]; over 100 µM in [4]; 49.7 µM in experiment [5]; over 100 µM in [6]. For the same molecule, the TGI in experiment [7], in [8], in experiment [9], in experiment [10] and in experiment [11] was over 100 µM throughout.
Consider `N[C@H]1CCCC[C@@H]1N1C(=O)c2ccccc2C1(O)c1ccc(Cl)cc1` (stereo partly drawn), for which the TGI in [1] came out at 26.4 µM; in experiment [2], 25.2 µM; in experiment [3] it was 3.5 µM; in experiment [4] it was 26.7 µM; in [5], 20 µM; in [6], 23.6 µM. Also, the TGI turned out to be 19.2 µM in [7]; 24.6 µM in [8]; 20.4 µM in [9]; 27.5 µM in [10]; 30.9 µM in experiment [11].

The record behind these values is PubChem BioAssay (NCI).
